The structures appear in SMILES notation. Read-outs that look alike come from different tables or passages of the source.

For one test, the system named is Botrytis cinerea. As to the kind of experiment: Sterilization test (growth inhibition of Botrytis cinerea in potato dextrose medium, 96-well microplate, turbidity 405 nm). The following applies: for inhibition at 0.1 ppm: drug I alone 0.1 ppm; for inhibition at 0.02 ppm / Growth inhibition rate: drug II alone 0.02 ppm; for inhibition at 10 ppm: drug II alone 10 ppm. It is filed as cell-based. The procedure:
The solutions thus obtained were mixed to prepare fungicidal compositions.
Conidia of Botrytis cinerea were added to and dispersed in a potato dextrose culture medium. A fungicidal composition was added thereto and mixed. This was dispensed in a 96-well microplate and cultured at 20° C. for 3 days in a dark setting. Then, the turbidity was measured at a wavelength of 405 nm in a microplate reader. From comparison with the measured value of turbidity in the case of non-treatment (without the addition of the fungicidal composition), the growth inhibition rate of Botrytis cinerea (%) was calculated. The test was carried out in duplicate. Further, the expected value of the growth inhibition was calculated based on Colby's equation.
In addition, the Colby's equation is E=M+N−MN/100. Here, E is the expected value of a growth inhibition rate (%), M is the growth inhibition rate (%) calculated from the measurement with the use of the drug I alone, and N is the growth inhibition rate (%) calculated from the measurement with the use of the drug II alone. Additionally, in Tables, the expected values with the use of the drug alone were not shown, because they were the same as the values calculated from the measurement.
At the concentrations shown in Tables 6 to 8, the drug I and the drug II were dissolved separately in dimethyl sulfoxide. The obtained solution was mixed to prepare a fungicidal composition.
Using the same methods as in Example 1 and Comparative Example 1, the sterilization test was carried out. Additionally, in Tables, the expected values with the use of the drug alone were not shown, because they were the same as the values calculated from the measurement.

The subject of test [1] is cucumber gray mold disease pathogens (Botrytis cinerea). As to the kind of experiment: Control test for cucumber gray mold disease (sprayed cucumber seedlings). It is filed as in vivo. The following applies: for pest or weed control at 10 ppm: drug I alone 10 ppm; for pest or weed control at 100 ppm: drug II alone 100 ppm; for pest or weed control at 400 ppm: drug II alone 400 ppm; for pest or weed control at 25 ppm: drug II alone 25 ppm. The procedure: The drug I and the drug II were dissolved in an organic solvent and a surfactant, and the prepared mixed emulsifiable concentrate was diluted with water to a predetermined concentration, and sprayed to cucumber seedlings that had been cultivated in unglazed pots (cultivar “Sagamihanjiro” cotyledon stage). Additionally, in Tables, the symbol A indicating the drug I represents a nitrogen-containing heterocyclic compound represented by the formula (A), the symbol B indicating the drug I represents a nitrogen-containing heterocyclic compound represented by the formula (B), and the symbol C indicating the drug I represents a nitrogen-containing heterocyclic compound represented by the formula (C). Further, the number indicating the drug II represents each of the compounds described in the numbers described above. Additionally, “-” in Tables represents that the drug was not used.
After air-drying at room temperature, a suspension of the conidia of cucumber gray mold disease pathogens (Botrytis cinerea) was inoculated by dropwise addition and held in a dark room at 20° C. with a high humidity for 3, 4, or 5 days. By investigation on the state of lesion appearance in leaves with comparison with a non-treatment case, the controlling effect was determined. The test was carried out in duplicate. In addition, the expected value of the controlling effect was calculated based on Colby's equation.
(§1) At the same time, in Comparative Example, in the case of using the drug I only and the case of using the drug II only, the test was carried out by the same method.
(§2) Additionally, the Colby's equation is E=M+N−MN/100. Here, E is the expected value of the controlling effect (%), M is the controlling effect (%) calculated from the measurement with the use of the drug I alone, and N is the controlling effect (%) calculated from the measurement with the use of the drug II alone. Additionally, in Tables, the expected values with the use of the drug alone were the same as the values calculated from the measurement, and were thus not shown.

Test [2] relates to cucumber powdery mildew disease pathogens (Sphaerotheca fuliginea). As to the kind of experiment: Control test for cucumber powdery mildew disease (sprayed cucumber seedlings). It is filed as in vivo. The following applies: held 7 days after inoculation. The procedure: The drug I and the drug II were dissolved in an organic solvent and a surfactant, and the prepared mixed emulsifiable concentrate was diluted with water to a predetermined concentration, and sprayed to cucumber seedlings that had been cultivated in unglazed pots (cultivar “Sagamihanjiro”, cotyledon stage). Additionally, in Tables, the symbol A indicating the drug I represents a nitrogen-containing heterocyclic compound represented by the formula (A), the symbol B indicating the drug I represents a nitrogen-containing heterocyclic compound represented by the formula (B), and the symbol C indicating the drug I represents a nitrogen-containing heterocyclic compound represented by the formula (C). Further, in Tables, the number indicating the drug II represents each of the compounds described in the numbers described above. Additionally, “-” in Tables represents that the drug was not used.
After air-drying at room temperature, the conidia of cucumber powdery mildew disease pathogens (Sphaerotheca fuliginea) was inoculated by shaking off and held in a warm room for 7 days. By investigation on the state of lesion appearance in leaves with comparison with a non-treatment case, the controlling effect was determined. The test was carried out in duplicate. In addition, the expected value of the controlling effect was calculated based on Colby's equation.
as §1, §2

[3] abbreviates: Botrytis cinerea, Example 1 (Tables 1-5), read-out: Growth inhibition rate.
The mark [4] stands for this setting: Botrytis cinerea, Example 2 (Tables 6-8), read-out: Growth inhibition rate.
[5] abbreviates: Botrytis cinerea, 72 h, read-out: Control effect (%), 3 days after inoculation.
[6] abbreviates: Botrytis cinerea, 96 h, read-out: Control effect (%), 4 days after inoculation.
[7] abbreviates: Botrytis cinerea, 120 h, read-out: Control effect (%), 5 days after inoculation.
[8] abbreviates: Botrytis cinerea, 120 h, read-out: Control effect, Table 10, 5 days after inoculation.
[9] abbreviates: Botrytis cinerea, 96 h, read-out: Control effect, Table 9, 4 days after inoculation.
Setting [10] is: Botrytis cinerea, 96 h, read-out: Control effect, Table 11, 4 days after inoculation.
Where [11] appears, read: Botrytis cinerea, 96 h, 4 days after inoculation, read-out: Control effect (%).
The mark [12] stands for this setting: Botrytis cinerea, 96 h, Table 9, 4 days after inoculation, read-out: Control effect.
Setting [13] is: Table 10, 5 days after inoculation, drug II alone 1.6 ppm.
Where [14] appears, read: Botrytis cinerea, 120 h, 5 days after inoculation, read-out: Control effect (%).

Regarding `CC1(C)CN=C(c2cnc3ccccc3c2)c2cccc(F)c2O1` [A], the inhibition at 0.1 ppm in the test with Botrytis cinerea (setting [3]) is 19%; with Botrytis cinerea (setting [4]), 20%. The pest or weed control at 10 ppm in test [1] (setting [5]) turned out to be 52%; in test [1] (setting [6]), 37%; in test [1] (setting [7]), 60%; in test [1] (setting [8]), 43%. Also, the “Control effect (%)” value in test [2] (drug I alone 10 ppm) is reported as 40%.
As for `Cc1nc2c(F)cccc2cc1Oc1cccc(F)c1C(C)(C)O` [B], the figures for the inhibition at 0.1 ppm with Botrytis cinerea (setting [3]) and in the test with Botrytis cinerea (setting [4]) were 19% and 18%, respectively. Moreover, the pest or weed control at 10 ppm in test [1] (setting [5]) turned out to be 54%; in test [1] (setting [6]), 37%; in test [1] (setting [9]), 50%; in test [1] (setting [10]), 78%; in test [1] (setting [7]), 64%; in test [1] (setting [8]), 44%. Further, the “Control effect (%)” value in test [2] (drug I alone 10 ppm) stood at 60%.
Consider `Cc1nc2c(F)c(F)ccc2cc1Oc1cccc(F)c1C(C)(C)O` [C], for which the inhibition at 0.1 ppm in the test on Botrytis cinerea (setting [3]) is 19%; in the test with Botrytis cinerea (setting [4]), 21%. Further, the pest or weed control at 10 ppm in test [1] (setting [5]) came out at 54%; in test [1] (setting [6]), 19%; in test [1] (setting [9]), 51%; in test [1] (setting [10]), 76%; in test [1] (setting [7]), 67%; in test [1] (setting [8]), 47%. Further, in test [2] (drug I alone 10 ppm), the “Control effect (%)” value is listed as 30%.
As to `CCCOC/C(=N\c1ccc(Cl)cc1C(F)(F)F)n1ccnc1` [Drug 2, Triflumizole], the inhibition at 2 ppm in the test with Botrytis cinerea (Botrytis cinerea, Example 1 (Tables 1-5), drug II alone 2 ppm, read-out: Growth inhibition rate) amounted to 59%. Further, the pest or weed control at 100 ppm in test [1] (setting [11]) was found to be 1%; in test [1] (Botrytis cinerea, 120 h, Table 10, 5 days after inoculation, read-out: Control effect) it was 33%. For the same compound, the pest or weed control at 400 ppm in test [1] (setting [12]) worked out at 64%.
For `COC(=O)NC(=S)Nc1ccccc1NC(=S)NC(=O)OC` [Drug 3, Thiophanate-methyl], the inhibition at 0.02 ppm in the test with Botrytis cinerea (setting [3]) was 0%. Further, in test [1] (Botrytis cinerea, 96 h, Table 9, 4 days after inoculation, drug II alone 1.6 ppm, read-out: Control effect), the pest or weed control at 1.6 ppm was 3%. Further, the pest or weed control at 6.3 ppm in test [1] (Botrytis cinerea, 120 h, Table 10, 5 days after inoculation, drug II alone 6.3 ppm, read-out: Control effect) stood at 89%.
`CC(=O)O.CC(=O)O.CC(=O)O.NC(N)=NCCCCCCCCNCCCCCCCCN=C(N)N` [Drug 4, Iminoctadine acetate] displayed a Growth inhibition rate in the test on Botrytis cinerea (Example 1 (Tables 1-5)) of 27%. Moreover, the Control effect in test [1] (setting [13]) is given as 0%; in test [1] (Table 10, 5 days after inoculation, drug II alone 6.3 ppm) it was 41%.
Consider `CCCCCCCCCCCCc1ccc(S(=O)(=O)O)cc1.CCCCCCCCCCCCc1ccc(S(=O)(=O)O)cc1.CCCCCCCCCCCCc1ccc(S(=O)(=O)O)cc1.NC(N)=NCCCCCCCCNCCCCCCCCN=C(N)N` [Drug 5, Iminoctadine albesilate], for which the Growth inhibition rate in the test with Botrytis cinerea (Example 1 (Tables 1-5)) amounted to 6%. For the same compound, the Control effect in test [1] (Table 10, 5 days after inoculation, drug II alone 0.4 ppm) turned out to be 0%; in test [1] (setting [13]), 0%.
`COC(=O)NCc1cc(/C(C)=N/OCc2cccc(C)n2)ccc1Cl` [Drug 29, Pyribencarb]: the inhibition at 0.02 ppm in the test on Botrytis cinerea (setting [3]) is 22%. The pest or weed control at 0.4 ppm in test [1] (Botrytis cinerea, 96 h, 4 days after inoculation, drug II alone 0.4 ppm, read-out: Control effect (%)) was found to be 0%. For the same compound, the pest or weed control at 1.6 ppm in test [1] (Botrytis cinerea, 96 h, 4 days after inoculation, drug II alone 1.6 ppm, read-out: Control effect (%)) came to 0%. Moreover, in test [1] (Botrytis cinerea, 96 h, 4 days after inoculation, drug II alone 6.3 ppm, read-out: Control effect (%)), the pest or weed control at 6.3 ppm was found to be 37%.
Consider `Cn1nnnc1/C(=N\OCc1cccc(NC(=O)OC(C)(C)C)n1)c1ccccc1` [Drug 38], for which, in the test with Botrytis cinerea (setting [3]), the inhibition at 10 ppm is 9%. For the same compound, the pest or weed control at 100 ppm in test [1] (setting [12]) turned out to be 0%.
As for `C/C(=N\C#N)N(C)Cc1ccc(Cl)nc1` [Drug 42, Acetamiprid], the inhibition at 10 ppm with Botrytis cinerea (setting [4]) came to 0%. Further, the pest or weed control at 25 ppm in test [1] (setting [11]) came to 0%. Also, in test [1] (setting [14]), the pest or weed control at 400 ppm came to 0%.
With `C[C@@H]1[C@@H](c2ccc(Cl)cc2)SC(=O)N1C(=O)NC1CCCCC1` [Drug 43, Hexythiazox], the inhibition at 10 ppm in the test on Botrytis cinerea (setting [4]) turned out to be 0%. For the same compound, the pest or weed control at 400 ppm in test [1] (setting [10]) is 2%. Further, in test [1] (setting [7]), the pest or weed control at 100 ppm was 0% and the pest or weed control at 400 ppm is 0%.
Take `CCc1ccc(C(=O)NN(C(=O)c2cc(C)cc(C)c2)C(C)(C)C)cc1` [Drug 44, Tebufenozide]: the inhibition at 10 ppm with Botrytis cinerea (setting [4]) is 0%. Further, the pest or weed control at 400 ppm was 22% in test [1] (Botrytis cinerea, 96 h, Table 11, 4 days after inoculation, read-out: Control effect) and 0% in test [1] (setting [14]).
Consider `CCCCc1c(C)nc(NCC)nc1OS(=O)(=O)N(C)C` [Drug 60, Bupirimate], for which the pest or weed control at 25 ppm in test [1] (setting [5]) came to 0%. Further, the results for the “Control effect (%)” value in test [2] (drug II alone 6.3 ppm) and in test [2] (drug II alone 25 ppm) were 10% and 50%, respectively.
With `Cc1cc(C(F)(F)F)nn1CC(=O)N1CCC(c2nc(C3=NOC(c4c(F)cccc4F)C3)cs2)CC1` (stereo not drawn) [Drug 61], the pest or weed control at 6.3 ppm in test [1] (Botrytis cinerea, 72 h, 3 days after inoculation, drug II alone 6.3 ppm, read-out: Control effect (%)) was found to be 0%. In addition, the pest or weed control at 100 ppm in test [1] (Botrytis cinerea, 72 h, 3 days after inoculation, read-out: Control effect (%)) was determined as 0%. Further, the “Control effect (%)” value in test [2] (drug II alone 6.3 ppm) was found to be 0%.

For orientation: inhibition means the relative decrease from the control value, in per cent.

(Values after patent publication US9901097B2, “Agricultural and horticultural fungicidal composition” (Nippon Soda Co., Ltd., priority 2011, dated 2018).)
